What was measured:
Experiment in all cases: Cell proliferation assay (CellTiter-Glo)
Assay type in all cases: cell-based
BaF3 EML4-ALK = target: T1, BaF3 EML4-ALK (Homo sapiens, UniProt Q9UM73); conditions: anti-cell proliferation, 72 hours
T1 construct: The EML4-ALK gene (variant 1) was synthesized at GenScript and cloned into pCDH-CMV-MCS-EF1-Puro plasmid (System Biosciences, Inc); fused on or other part: EML4 N-terminal part (variant 1: exons 1-13, with the coiled-coil that oligomerises the fusion) fused to the intracellular part of ALK, which contains the kinase domain; Q9HC35 (Echinoderm microtubule-associated protein-like 4)
T1 sequence (Q9UM73 whole entry, stated change not applied, the tested form may be a part): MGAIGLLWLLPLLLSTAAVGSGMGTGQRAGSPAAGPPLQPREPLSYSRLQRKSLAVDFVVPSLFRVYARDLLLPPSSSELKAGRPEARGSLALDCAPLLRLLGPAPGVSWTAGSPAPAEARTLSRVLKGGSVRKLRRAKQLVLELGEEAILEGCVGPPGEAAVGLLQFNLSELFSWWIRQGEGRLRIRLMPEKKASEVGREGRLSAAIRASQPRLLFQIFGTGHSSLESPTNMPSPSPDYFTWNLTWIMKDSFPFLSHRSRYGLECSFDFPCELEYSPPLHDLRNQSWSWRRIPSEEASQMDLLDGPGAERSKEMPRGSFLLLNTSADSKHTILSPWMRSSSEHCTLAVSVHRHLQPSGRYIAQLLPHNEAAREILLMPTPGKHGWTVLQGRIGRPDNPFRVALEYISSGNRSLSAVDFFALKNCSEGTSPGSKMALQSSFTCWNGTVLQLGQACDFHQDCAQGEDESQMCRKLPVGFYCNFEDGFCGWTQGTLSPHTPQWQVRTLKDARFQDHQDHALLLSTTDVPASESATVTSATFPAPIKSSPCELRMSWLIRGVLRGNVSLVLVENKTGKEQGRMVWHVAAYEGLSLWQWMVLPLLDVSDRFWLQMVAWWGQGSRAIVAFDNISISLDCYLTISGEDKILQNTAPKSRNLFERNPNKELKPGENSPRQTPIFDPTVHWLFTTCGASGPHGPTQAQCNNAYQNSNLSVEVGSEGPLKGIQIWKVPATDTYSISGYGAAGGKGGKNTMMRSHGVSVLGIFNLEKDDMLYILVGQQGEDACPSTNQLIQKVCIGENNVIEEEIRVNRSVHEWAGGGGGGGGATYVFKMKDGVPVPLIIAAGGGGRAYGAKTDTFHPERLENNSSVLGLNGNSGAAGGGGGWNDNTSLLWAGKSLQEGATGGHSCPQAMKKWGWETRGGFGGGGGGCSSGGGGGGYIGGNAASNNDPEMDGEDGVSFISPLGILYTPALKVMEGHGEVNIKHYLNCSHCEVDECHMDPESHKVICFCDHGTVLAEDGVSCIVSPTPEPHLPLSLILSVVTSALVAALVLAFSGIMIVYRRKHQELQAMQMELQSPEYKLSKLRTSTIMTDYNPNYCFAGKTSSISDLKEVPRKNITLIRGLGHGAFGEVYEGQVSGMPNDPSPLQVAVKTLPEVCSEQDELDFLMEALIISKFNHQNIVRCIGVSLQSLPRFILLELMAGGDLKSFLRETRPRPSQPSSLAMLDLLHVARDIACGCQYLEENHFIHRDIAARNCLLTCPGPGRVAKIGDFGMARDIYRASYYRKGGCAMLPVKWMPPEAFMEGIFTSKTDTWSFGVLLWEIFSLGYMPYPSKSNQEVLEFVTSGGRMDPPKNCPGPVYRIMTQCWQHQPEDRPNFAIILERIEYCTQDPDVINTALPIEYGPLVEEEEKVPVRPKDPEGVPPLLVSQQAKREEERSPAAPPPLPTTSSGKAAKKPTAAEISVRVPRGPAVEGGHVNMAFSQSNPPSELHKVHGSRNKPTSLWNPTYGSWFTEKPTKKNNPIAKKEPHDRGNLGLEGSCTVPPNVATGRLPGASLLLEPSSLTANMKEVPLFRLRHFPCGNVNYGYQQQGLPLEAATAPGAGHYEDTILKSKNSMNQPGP
Description: Cloning and Ba/F3 or NIH3T3 Stable Cell Line Creation
The EML4-ALK gene (variant 1) was synthesized at GenScript and cloned into pCDH-CMV-MCS-EF1-Puro plasmid (System Biosciences, Inc). Ba/F3-EML4-ALK wild type were generated by transducing Ba/F3 cells with lentivirus containing EML4-ALK wide type. Stable cell lines were selected by puromycin treatment, followed by IL-3 withdrawal. Briefly, 5×10^6 Ba/F3 cells were transduced with lentivirus supernatant in the presence of 8 μg/mL protamine sulfate. The transduced cells were subsequently selected with 1 μg/mL puromycin in the presence of IL3-containing medium RPMI1640, plus 10% FBS. After 10-12 days of selection, the surviving cells were further selected for IL3 independent growth.
(§1) Cell Proliferation Assays:
(§2) Two thousand cells per well were seeded in 384 well white plate for 24 hrs, and then treated with compounds for 72 hours (37° C., 5% CO2). Cell proliferation was measured using CellTiter-Glo luciferase-based ATP detection assay (Promega) following the manufactures's protocol. IC50 determinations were performed using GraphPad Prism software (GraphPad, Inc., San Diego, Calif.).

KG-1 cell (OP2-FGFR1) = conditions: Homo sapiens, anti-cell proliferation, 72 hours
Description: (§3) Cell Lines and Cell Culture:
(§4) Colorectal cell line KM 12 (harboring endogenous TPM3-TRKA fusion gene) was obtained from NCI. Acute myelogenous cell line KG-1 (harboring endogenous OP2-FGFR1 fusion gene) were purchased from ATCC.
as §1, §2

KM12 (TPM3-TRKA) = conditions: Homo sapiens, anti-cell proliferation, 72 hours
Description: as §3, §4, §1, §2

IC50 (BaF3 EML4-ALK) [nM]	Structure (SMILES)	IC50 (KG-1 cell (OP2-FGFR1)) [nM]	IC50 (KM12 (TPM3-TRKA)) [nM]
48.2	C[C@H]1CNC(=O)c2cnn3cc4c(nc23)N(Cc2cc(F)cnc2OC1)[C@H](C)CO4 [Compound 35, (7S,16R)-12-fluoro-7,16-dimethyl-5,6,7,8,16,17-hexahydro-4H,14H-1,19-(metheno)[1,4]oxazino[4,3-e]pyrazolo[3,4-h]pyrido[2,3-b] [1,5,7,11]oxatriazacyclotetra-decin-4-one]	33.5	< 0.2
60.9	C[C@@H]1COc2cn3ncc4c3nc2N1Cc1cc(F)cnc1O[C@@H](C)CCNC4=O [Compound 36, (8S,16R)-12-fluoro-8,16-dimethyl-5,6,7,8,16,17-hexahydro-4H,14H-1,19-(metheno)[1,4]oxazino[4,3-e]pyrazolo[3,4-h]pyrido[2,3-b] [1,5,7,11]oxatriazacyclotetra-decin-4-one]	25.3	< 0.2
< 0.2	C[C@@H]1COc2cn3ncc4c3nc2N1Cc1cc(F)cnc1OCC(C)(C)NC4=O [Compound 40, (4R)-8-fluoro-4,13,13-trimethyl-3,4,13,14-tetrahydro-6H-18,1-(metheno)[1,4]oxazino[3,4-i]-pyrazolo[4,3-f]pyrido[3,2-l] [1,4,8,10]oxatriazacyclotridecin-15(12H)-one]	0.2	< 0.2
1170	C[C@@H]1COc2ncc(F)cc2CN2c3nc4c(cnn4cc3OC[C@H]2CC#N)C(=O)N1 [Compound 41, [(4R,13R)-8-fluoro-13-methyl-15-oxo-3,4,12,13,14,15-hexahydro-6H-18,1-(metheno)[1,4]oxazino[3,4-i]pyrazolo[4,3-f]pyrido[3,2-][1,4,8,10]oxatriazacyclotridecin-4-yl]acetonitrile]	611	0.5
1200	C=C1COc2cn3ncc4c3nc2N1Cc1cc(F)cnc1OC[C@@H](C)NC4=O [Compound 42, (13R)-8-fluoro-13-methyl-4-methylidene-3,4,13,14-tetrahydro-6H-18,1-(metheno)[1,4]oxazino[3,4-i]pyrazolo[4,3-f]pyrido[3,2-1][1,4,8,10]oxatriazacyclotridecin-15(12H)-one]	1230	< 0.2
85	C[C@@H]1COc2ncc(F)cc2CN2c3nc4c(cnn4cc3OC[C@H]2CN=[N+]=[N-])C(=O)N1 [Compound 43, (4R,13R)-4-(azidomethyl)-8-fluoro-13-methyl-3,4,13,14-tetrahydro-6H-18,1-(metheno)-[1,4]oxazino[3,4-i]pyrazolo[4,3-f]pyrido[3,2-l][1,4,8,10]oxatriaza-cyclotridecin-15(12H)-one]	30.6	0.2
549	COC[C@@H]1COc2cn3ncc4c3nc2N1Cc1cc(F)cnc1OC[C@@H](C)NC4=O [Compound 44, (4R,13R)-8-fluoro-4-(methoxymethyl)-13-methyl-3,4,13,14-tetrahydro-6H-18,1-(metheno)[1,4]oxazino[3,4-i]pyrazolo[4,3-f]pyrido[3,2-1][1,4,8,10]oxatriazacyclotridecin-15(12H)-one]	168	< 0.2
2.7	C[C@@H]1COc2cn3ncc4c3nc2N1Cc1cc(F)cnc1OCC1(CCC1)NC4=O [Compound 45, (4′R)-8′-fluoro-4′-methyl-3′H,4′H,6′H,12′H,14′H,15′H-spiro[cyclobutane-1,13′-[2,11]-dioxa[5,10,14,17,18,19]hexaaza-[18,1](metheno)[1,4]oxazino[3,4-i]pyrazolo[4,3-f]pyrido[3,2-l] [1,4,8,10]oxatriazacyclotridecin]-15′-one]	5	< 0.2
1060	C[C@@H]1COc2ncc(F)cc2CN2c3nc4c(cnn4cc3OC[C@H]2c2ccccc2)C(=O)N1 [Compound 46, (4R,13R)-8-fluoro-13-methyl-4-phenyl-3,4,13,14-tetrahydro-6H-18,1-(metheno)[1,4]oxazino[3,4-i]pyrazolo[4,3-f]pyrido[3,2-1][1,4,8,10]oxatriazacyclotridecin-15(12H)-one]	0.2	< 0.2
68	C[C@@H]1COc2cn3ncc4c3nc2N1Cc1cc(F)cnc1OCC1(CCC1)CNC4=O [Compound 47, (16′R)-12′-fluoro-16′-methyl-4′H,5′H,6′H,8′H,14′H,16′H,17′H-spiro[cyclobutane-1,7′-[9,18]-dioxa[1,2,5,10,15,20]hexaaza-[1,19](metheno)[1,4]oxazino-[4,3-e]pyrazolo[3,4-h]pyrido-[2,3-b][1,5,7,11]oxatriazacyclo-tetradecin]-4′-one]	24.2	< 0.2
22.1	C[C@@H]1COc2cn3ncc4c3nc2N1Cc1cc(F)cnc1OCC[C@H](C)NC4=O [Compound 48, (6S,16R)-12-fluoro-6,16-dimethyl-5,6,7,8,16,17-hexahydro-4H,14H-1,19-(metheno)[1,4]oxazino[4,3-e]pyrazolo[3,4-h]pyrido[2,3-b] [1,5,7,11]oxatriazacyclotetra-decin-4-one]	12.9	< 0.2
55.1	C[C@@H]1COc2cn3ncc4c3nc2N1Cc1cc(F)cnc1O[C@H]1CCC[C@H]1NC4=O [Compound 49, (8R,15aS,18aR)-12-fluoro-8-methyl-7,8,15a,16,17,18,18a, 19-octahydro-10H,20H-3,5-(metheno)cyclopenta[b][1,4]-oxazino[3,4-i]pyrazolo[4,3-f]-pyrido[3,2-l][1,4,8,10]-oxatriazacyclotridecin-20-one]	9.5	< 0.2
583	C[C@@H]1COc2cn3ncc4c3nc2N1Cc1cc(F)cnc1OCC1(CC(F)(F)C1)NC4=O [Compound 50, (4′R)-3,3,8′-trifIuoro-4′-methyl-3′H,4′H,6′H,12′H,14′H,15′H-spiro[cyclobutane-1,13′-[2,11]-dioxa[5,10,14,17,18,19]hexaaza-[18,1](metheno)[1,4]oxazino[3,4-i][4,3-f]pyrido[3,2-l][1,4,8,10]-oxatriazacyclotridecin]-15′-one]	412	< 0.2
233	C[C@@H]1COc2cn3ncc4c3nc2N1Cc1cc(F)cnc1OC[C@H](C)NC4=O [Compound 51, (4R,13S)-8-fluoro-4,13-dimethyl-3,4,13,14-tetrahydro-6H-18,1-(metheno)[1,4]oxazino[3,4-i]-pyrazolo[4,3-f]pyrido[3,2-l] [1,4,8,10]oxatriazacyclotridecin-15(12H)-one]	101	< 0.2
276	C[C@@H]1COc2cn3ncc4c3nc2N1Cc1cc(F)cnc1OCC1(CCCC1)NC4=O [Compound 52, (4'R)-8'-fluoro-4'-methyl-3'H,4'H,6'H,12'H,14'H,15'H-spiro[cyclopentane-1,13'-[2,11]-dioxa[5,10,14,17,18,19]hexaaza-[18,1](metheno)[1,4]oxazino[3,4-i]pyrazolo[4,3-f]pyrido[3,2-l] [1,4,8,10]oxatriazacyclotridecin]-15’-one]	359	< 0.2
113	C[C@@H]1COc2cn3ncc4c3nc2N1Cc1cc(F)cnc1O[C@H]1CCC[C@@H]1NC4=O [Compound 53, (8R,15aS,18aS)-12-fluoro-8-methyl-7,8,15a,16,17,18,18a, 19-octahydro-10H,20H-3,5-(metheno)cyclopenta[b][1,4]-oxazino[3,4-i]pyrazolo[4,3-f]-pyrido[3,2-l][1,4,8,10]oxatriaza-cyclotridecin-20-one]	183	< 0.2
661	C[C@@H]1COc2cn3ncc4c3nc2N1Cc1cc(F)cnc1OC[C@@H](O)CNC4=O [Compound 54, (7S,16R)-12-fluoro-7-hydroxy-16-methyl-5,6,7,8,16,17-hexa-hydro-4H,14H-1,19-(metheno)-[1,4]oxazino[4,3-e]pyrazolo-[3,4-h]pyrido[2,3-b][1,5,7,11]-oxatriazacyclotetradecin-4-one]	678	< 0.2
14.8	C[C@@H]1COc2cn3ncc4c3nc2N1Cc1cc(F)cnc1OCC(C)(C)CNC4=O [Compound 55, (16R)-12-fluoro-7,7,16-trimethyl-5,6.7,8,16,17-hexahydro-4H,14H-1,19-(metheno)[1,4]oxazino[4,3-e]pyrazolo[3,4-h]pyrido[2,3-b] [1,5,7,11]oxatriazacyclotetradecin-4-one]	4.2	< 0.2
919	C[C@H]1CNC(=O)c2cnn3cc4c(nc23)N(Cc2cc(F)cnc2O1)C1(CCC1)CO4 [Compound 56, (12′S)-8′-fluoro-12′-methyl-3′H,6′H,12′H,13′H,14′H,15′H-spiro[cyclobutane-1,4′-[2,11]-dioxa[5,10,14,17,18,19]-hexaaza[18,1](metheno)[1,4]-oxazino[3,4-i]pyrazolo[4,3-f]-pyrido[3,2-l][1,4,8,10]oxatriaza-cyclotridecin]-15′-one]	3000	< 0.2

— patent US20210087206A1, “MACROCYCLIC KINASE INHIBITORS AND THEIR USE” (TURNING POINT THERAPEUTICS, INC., priority 2017, published 2021)
